Results published in patent US11773086B2, “Fungal modulators” (TRUSTEES OF BOSTON UNIVERSITY, priority 2020, dated 2023).

Experiments:
C. auris = assay: Sterol composition by LC-MS; type: cell-based, Candida auris; conditions: 18 hours
Excerpt: FIGS. 3A-3B, and 4A-4B illustrate azoffluxin increases fluconazole (FLC) bioavailability by inhibiting Cdr1-mediated efflux in C. auris, as described above. FIG. 3A depicts the relative abundance of specific sterols determined in C. auris after an 18-hour treatment with the respective compounds (⋅ indicates combo treatment concentrations) using LC-MS. Values are plotted relative to the internal standard of cholesterol and error bars indicate standard deviation between technical triplicates. Significance was determined by an unpaired student t-test of each condition to untreated, (*) indicates a p-value<0.05 and (**) indicates a p-value<0.01. FIG. 3B depicts the intracellular concentrations of FLC and azoffluxin measured after treatment for 1 hour (conditions as in FIG. 3A) Error bars indicate standard deviation between technical triplicates. Significance was determined by an unpaired student t-test, (**) indicates a p-value<0.01. FIG. 4A depicts the quantified relative expression of a panel of putative efflux pumps in C. auris Ci6684. Expression of CDR1 (B9J08_000164), MDR1 (B9J08_003981), CDR4-1 (B9J08_000479), CDR4-2 (B9J08_002451), SNQ2-1 (B9J08_001125), and SNQ2-2 (B9J08_004452) was measured by RT-qPCR. […] FIG. 4B depicts expression of CDR1 (B9J08_000164) and CDR4-1 (B9J08_000479) measured by quantitative real-time PCR (RT-qPCR). […]

C. neoformans = assay: Fluconazole efficacy with azoffluxin; type: cell-based, Cryptococcus neoformans; conditions: despite increasing Nile red
Excerpt: FIGS. 11A and 11B illustrate Nile red Accumulation in C. albicans, C. glabrata, and C. neoformans.

## C=C(C)C[C@@H](O)COc1cc2c(cc1C1(c3cc4c(cc3OC[C@H](O)CC(=C)C)OCO4)C(=O)Nc3cc(F)ccc31)OCO2 [CMLD012336]
C. auris; azoffluxin + low fluconazole vs low fluconazole alone
  increase in 14-α-methyl-3,6-diol: 4 fold
C. auris; azoffluxin alone vs untreated
  abundance of ergosterol, lanosterol, 14-α-methyl-3,6-diol: No significant increases
C. neoformans
  enhancement of fluconazole efficacy: did not enhance the efficacy of fluconazole
